Results reported in US11066369B2, “N-(pyridin-2-yl)pyridine-sulfonamide derivatives and their use in the treatment of disease” (Novartis AG, priority 2016, dated 2021).
Where a name gives a salt, the structure may show the parent alone.

Molecular target: T1, horseradish peroxidase (HRP) tagged delF508-CFTR (Homo sapiens, UniProt P13569, DEL508-508)
T1 construct: expressed in transfected cells
Experiment: Measurement of delF508-CFTR-HRP surface expression in CFBE41o- cells;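 for DelF508-CFTR-HRP Amax %: percent efficacy relative to reference corrector lumacaftor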
Type: cell-based
Settings: delF508-CFTR-HRP surface expression, CFBE41o- cells; for Emax: read-out: DelF508-CFTR-HRP Amax %; for EC50: read-out: DelF508-CFTR-HRP EC50
Summary of the method: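 Surface-trafficked delF508-CFTR detected via extracellular HRP tag, read as luminescence from a membrane-impermeant substrate in CFBE41o- cells. Cells pre-induced 48h with 500 ng/mL doxycycline, then exposed 24h at 37° C to a 10-point, 3-fold dilution series from 10 μM (DMSO ≤0.5%). Triplicate dose-responses fitted logistically for EC50 after per-plate normalization; fold change versus reference compound.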

T1 sequence (P13569 with tags, fused parts or gaps DEL508-508): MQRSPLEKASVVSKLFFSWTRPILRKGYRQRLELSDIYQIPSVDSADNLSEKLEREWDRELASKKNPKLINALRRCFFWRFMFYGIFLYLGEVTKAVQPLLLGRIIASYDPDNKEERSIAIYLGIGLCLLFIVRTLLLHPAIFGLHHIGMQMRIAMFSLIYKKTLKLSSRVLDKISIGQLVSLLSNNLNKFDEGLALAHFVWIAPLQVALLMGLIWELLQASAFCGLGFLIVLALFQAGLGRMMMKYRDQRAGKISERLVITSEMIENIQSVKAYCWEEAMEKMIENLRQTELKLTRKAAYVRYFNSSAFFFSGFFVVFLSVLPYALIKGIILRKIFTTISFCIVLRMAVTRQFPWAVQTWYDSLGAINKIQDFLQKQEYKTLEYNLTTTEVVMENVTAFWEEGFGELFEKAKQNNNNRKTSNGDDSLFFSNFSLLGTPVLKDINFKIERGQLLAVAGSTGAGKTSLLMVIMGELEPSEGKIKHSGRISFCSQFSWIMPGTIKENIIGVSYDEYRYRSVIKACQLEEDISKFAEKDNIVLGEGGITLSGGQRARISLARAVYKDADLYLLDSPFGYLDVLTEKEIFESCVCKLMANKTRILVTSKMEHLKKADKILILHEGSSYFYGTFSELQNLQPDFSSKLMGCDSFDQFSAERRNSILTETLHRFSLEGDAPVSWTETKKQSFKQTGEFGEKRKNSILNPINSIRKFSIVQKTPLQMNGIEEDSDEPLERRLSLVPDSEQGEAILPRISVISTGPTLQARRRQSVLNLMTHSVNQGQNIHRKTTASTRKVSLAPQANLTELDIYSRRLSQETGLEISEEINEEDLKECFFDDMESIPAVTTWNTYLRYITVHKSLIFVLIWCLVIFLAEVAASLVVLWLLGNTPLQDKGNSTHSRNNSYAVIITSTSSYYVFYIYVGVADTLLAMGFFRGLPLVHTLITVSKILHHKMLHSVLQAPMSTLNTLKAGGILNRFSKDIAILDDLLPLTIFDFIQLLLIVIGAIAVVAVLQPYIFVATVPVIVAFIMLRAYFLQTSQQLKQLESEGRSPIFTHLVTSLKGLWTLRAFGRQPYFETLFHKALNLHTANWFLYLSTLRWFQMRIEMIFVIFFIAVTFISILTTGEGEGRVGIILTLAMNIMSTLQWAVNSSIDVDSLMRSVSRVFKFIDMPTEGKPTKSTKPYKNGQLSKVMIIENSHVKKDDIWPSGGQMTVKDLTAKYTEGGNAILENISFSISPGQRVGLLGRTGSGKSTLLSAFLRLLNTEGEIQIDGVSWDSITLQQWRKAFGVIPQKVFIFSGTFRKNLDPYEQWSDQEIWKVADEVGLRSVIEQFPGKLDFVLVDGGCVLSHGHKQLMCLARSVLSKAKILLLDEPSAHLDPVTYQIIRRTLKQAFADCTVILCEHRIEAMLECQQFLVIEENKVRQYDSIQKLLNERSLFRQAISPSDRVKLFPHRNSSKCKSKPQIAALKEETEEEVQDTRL

Row | SMILES | Emax | EC50
1 | Cc1ccccc1-c1nc(NS(=O)(=O)c2cccc(N[C@@H]3CCNC[C@H]3O)n2)ccc1C(F)(F)F [Example 114, 6-(((3R,4R)-3-hydroxypiperidin-4-yl)amino)-N-(6-(o-tolyl)-5-(trifluoromethyl)pyridin-2-yl)pyridine-2-sulfonamide Hydrochloride] | 66.2% | 3.63 µM
2 | Cc1ccccc1-c1nc(NS(=O)(=O)c2cccc(N[C@H]3CCNC3)n2)ccc1C(F)(F)F [Example 124, (S)-6-(pyrrolidin-3-ylamino)-N-(6-(o-tolyl)-5-(trifluoromethyl)pyridin-2-yl)pyridine-2-sulfonamide Hydrochloride] | 148% | 4.61 µM
3 | O=S(=O)(Nc1ccc(Cl)c(-c2ccccc2C(F)(F)F)n1)c1cccc(N[C@@H]2COC[C@H]2O)n1 [Example 126, N-(5-chloro-6-(2-(trifluoromethyl)phenyl)pyridin-2-yl)-6-(((3R,4S)-4-hydroxytetrahydrofuran-3-yl)amino)pyridine-2-sulfonamide] | 235% | 2.18 µM
4 | Cc1cccc(C)c1-c1cc(C(F)(F)F)cc(NS(=O)(=O)c2cccc(N3CCN(C(=O)OC(C)(C)C)CC3)n2)n1 [Example 132, tert-butyl 4-(6-(N-(6-(2,6-dimethylphenyl)-4-(trifluoromethyl)pyridin-2-yl)sulfamoyl)pyridin-2-yl)piperazine-1-carboxylate] | 894% | 0.803 µM
5 | Cc1ccccc1-c1nc(NS(=O)(=O)c2cccc(N3CCN4CC(F)(F)C[C@H]4C3)n2)ccc1C(F)(F)F [Example 136, (S)-6-(7,7-difluorohexahydropyrrolo[1,2-a]pyrazin-2(1H)-yl)-N-(6-(o-tolyl)-5-(trifluoromethyl)pyridin-2-yl)pyridine-2-sulfonamide] | 862% | 1.11 µM
6 | Cc1ccccc1-c1nc(NS(=O)(=O)c2cccc(N3CCN4C[C@@H](F)C[C@H]4C3)n2)ccc1C(F)(F)F [Example 137, 6-((7S,8aS)-7-fluorohexahydropyrrolo[1,2-a]pyrazin-2(1H)-yl)-N-(6-(o-tolyl)-5-(trifluoromethyl)pyridin-2-yl)pyridine-2-sulfonamide] | 854% | 1.35 µM
7 | COc1cc(NS(=O)(=O)c2cccc(N3CCNCC3)n2)nc(-c2c(C)cccc2C)c1 [Example 139, N-(6-(2,6-dimethylphenyl)-4-methoxypyridin-2-yl)-6-(piperazin-1-yl)pyridine-2-sulfonamide] | 53.2% | 4.97 µM
8 | Cc1ccc(F)cc1-c1nc(NS(=O)(=O)c2cccc(N3CCN(C(C)(C)C)CC3)n2)ccc1C(F)(F)F [Example 143, 6-(4-(tert-butyl)piperazin-1-yl)-N-(6-(5-fluoro-2-methylphenyl)-5-(trifluoromethyl)pyridin-2-yl)pyridine-2-sulfonamide] | 888% | 2.99 µM
9 | Cc1c(F)cccc1-c1nc(NS(=O)(=O)c2cccc(N3CCn4cnnc4C3)n2)ccc1Cl [Example 146, N-(5-chloro-6-(3-fluoro-2-methylphenyl)pyridin-2-yl)-6-(5,6-dihydro-[1,2,4]triazolo[4,3-a]pyrazin-7(8H)-yl)pyridine-2-sulfonamide] | 59.1% | 4.28 µM
10 | O=S(=O)(Nc1ccc(C(F)(F)F)c(-c2ccc(F)cc2Cl)n1)c1cccc(N2CCNCC2)n1 [Example 153, N-(6-(2-Chloro-4-Fluorophenyl)-5-(Trifluoromethyl)Pyridin-2-yl)-6-(Piperazin-1-yl)Pyridine-2-Sulfonamide Hydrochloride] | 159% | 3.8 µM
11 | O=S(=O)(Nc1ccc(C(F)(F)F)c(-c2cccc(F)c2Cl)n1)c1cccc(N2CCNCC2)n1 [Example 155, N-(6-(2-chloro-3-fluorophenyl)-5-(trifluoromethyl)pyridin-2-yl)-6-(piperazin-1-yl)pyridine-2-sulfonamide hydrochloride] | 196% | 4.4 µM
12 | O=S(=O)(Nc1ccc(Cl)c(-c2ccccc2Cl)n1)c1cccc(N2CCNCC2)n1 [Example 156, N-(5-chloro-6-(2-chlorophenyl)pyridin-2-yl)-6-(piperazin-1-yl)pyridine-2-sulfonamide] | 178% | 4.03 µM
13 | O=S(=O)(Nc1ccc(Cl)c(-c2ccc(F)cc2Cl)n1)c1cccc(N2CCNCC2)n1 [Example 157, N-(5-chloro-6-(2-chloro-4-fluorophenyl)pyridin-2-yl)-6-(piperazin-1-yl)pyridine-2-sulfonamide] | 180% | 4.28 µM
14 | O=S(=O)(Nc1ccc(Cl)c(-c2cccc(F)c2Cl)n1)c1cccc(N2CCNCC2)n1 [Example 159, N-(5-chloro-6-(2-chloro-3-fluorophenyl)pyridin-2-yl)-6-(piperazin-1-yl)pyridine-2-sulfonamide hydrochloride] | 130% | 4.42 µM
15 | Cc1ccc(C(F)(F)F)cc1-c1nc(NS(=O)(=O)c2cccc(N3CCN(C(=O)OC(C)(C)C)CC3)n2)ccc1Cl [Example 168, tert-butyl 4-(6-(N-(5-chloro-6-(2-methyl-5-(trifluoromethyl)phenyl)pyridin-2-yl)sulfamoyl)pyridin-2-yl)piperazine-1-carboxylate] | 271% | 0.626 µM
16 | Cc1cccc(C)c1-c1nc(NS(=O)(=O)c2cccc(N3CCN(C(=O)OC(C)(C)C)CC3=O)n2)ccc1Cl [Example 188, tert-butyl 4-(6-(N-(5-chloro-6-(2,6-dimethylphenyl)pyridin-2-yl)sulfamoyl)pyridin-2-yl)-3-oxopiperazine-1-carboxylate] | 658% | 0.971 µM
17 | Cc1c(F)cccc1-c1nc(NS(=O)(=O)c2cccc(N3CCNCC3)n2)ccc1Cl [Example 194, N-[5-chloro-6-(3-fluoro-2-methylphenyl)pyridin-2-yl]-6-(piperazin-1-yl)pyridine-2-sulfonamide hydrochloride] | 177% | 3.84 µM
18 | Cc1cccc(C)c1-c1nc(NS(=O)(=O)c2cccc(N3CCn4ccnc4C3)n2)ccc1Cl [Example 198, N-(5-chloro-6-(2,6-dimethylphenyl)pyridin-2-yl)-6-(5,6-dihydroimidazo[1,2-a]pyrazin-7(8H)-yl)pyridine-2-sulfonamide] | 692% | 1.95 µM
19 | Cc1ccc(F)cc1-c1nc(NS(=O)(=O)c2cccc(N3C[C@@H]4CC[C@H]3CN4)n2)ccc1C(F)(F)F [Example 200, 6-((1S,4S)-2,5-diazabicyclo[2.2.2]octan-2-yl)-N-(6-(5-fluoro-2-methylphenyl)-5-(trifluoromethyl)pyridin-2-yl)pyridine-2-sulfonamide Hydrochloride] | 553% | 3.17 µM
20 | Cc1ccc(F)cc1-c1nc(NS(=O)(=O)c2cccc(N3CCN4CC[C@H]3C4)n2)ccc1C(F)(F)F [Example 202, 6-((5S)-1,4-diazabicyclo[3.2.1]octan-4-yl)-N-(6-(5-fluoro-2-methylphenyl)-5-(trifluoromethyl)pyridin-2-yl)pyridine-2-sulfonamide] | 159% | 3.93 µM
21 | COc1cc(NS(=O)(=O)c2cccc(N3CC(C)(O)C3)n2)nc(-c2c(C)cccc2C)c1 [Example 206, N-(6-(2,6-dimethylphenyl)-4-methoxypyridin-2-yl)-6-(3-hydroxy-3-methylazetidin-1-yl)pyridine-2-sulfonamide] | 95.9% | 3.7 µM
22 | COC(=O)C1(C)CCN(c2cccc(S(=O)(=O)Nc3ccc(C(F)(F)F)c(-c4ccccc4C4CC4)n3)n2)CC1 [Example 236, methyl 1-(6-(N-(6-(2-cyclopropylphenyl)-5-(trifluoromethyl)pyridin-2-yl)sulfamoyl)pyridin-2-yl)-4-methylpiperidine-4-carboxylate] | 602% | 0.573 µM
23 | CC1(C(=O)O)CCN(c2cccc(S(=O)(=O)Nc3ccc(Cl)c(-c4ccccc4Cl)n3)n2)CC1 [Example 239, 1-(6-(N-(5-chloro-6-(2-chlorophenyl)pyridin-2-yl)sulfamoyl)pyridin-2-yl)-4-methylpiperidine-4-carboxylic Acid] | 280% | 4.51 µM
24 | CC1(C(=O)O)CCN(c2cccc(S(=O)(=O)Nc3ccc(C(F)(F)F)c(-c4ccc(F)cc4Cl)n3)n2)CC1 [Example 240, 1-(6-(N-(6-(2-chloro-4-fluorophenyl)-5-(trifluoromethyl)pyridin-2-yl)sulfamoyl)pyridin-2-yl)-4-methylpiperidine-4-carboxylic Acid] | 385% | 3.42 µM
25 | CC1(C(=O)O)CCN(c2cccc(S(=O)(=O)Nc3ccc(Cl)c(-c4ccc(F)cc4Cl)n3)n2)CC1 [Example 243, 1-(6-(N-(5-chloro-6-(2-chloro-4-fluorophenyl)pyridin-2-yl)sulfamoyl)pyridin-2-yl)-4-methylpiperidine-4-carboxylic Acid] | 152% | 2.6 µM
26 | COc1ccc(Cl)c(-c2nc(NS(=O)(=O)c3cccc(N4CCC(C)(C(=O)O)CC4)n3)ccc2Cl)c1 [Example 244, 1-(6-(N-(5-chloro-6-(2-chloro-5-methoxyphenyl)pyridin-2-yl)sulfamoyl)pyridin-2-yl)-4-methylpiperidine-4-carboxylic Acid] | 222% | 3.65 µM
27 | CCOC(=O)C1(C)CCN(c2cccc(S(=O)(=O)Nc3ccc(Cl)c(-c4cccc(F)c4C)n3)n2)CC1 [Example 252, ethyl 1-(6-(N-(5-chloro-6-(3-fluoro-2-methylphenyl)pyridin-2-yl)sulfamoyl)pyridin-2-yl)-4-methylpiperidine-4-carboxylate] | 602% | 2.47 µM
28 | CCOC(=O)C1(C)CCN(c2cccc(S(=O)(=O)Nc3ccc(C(F)(F)F)c(-c4cccc(F)c4C)n3)n2)CC1 [Example 258, ethyl 1-(6-{[6-(3-fluoro-2-methylphenyl)-5-(trifluoromethyl)pyridin-2-yl]sulfamoyl}pyridin-2-yl)-4-methylpiperidine-4-carboxylate] | 828% | 1.39 µM
